According to patent US20100099756A1, “USES OF INCENSOLE, INCENSOLE ACETATE AND DERIVATIVES THEREOF” (YISSUM RESEARCH DEVELOPMENT COMPANY OF THE HEBREW …, priority 2006, published 2010):

Legend:
[1] = test system: closed head injury; test: Tissue edema formation (tissue water content) after CHI; type: in vivo, mice; details: left (ipsilateral) hemisphere, 24 h after injury; P=0.15 vs vehicle
[2] = biological target: T1, mouse TRPV3-YFP (Mus musculus, UniProt Q8K424); test: Whole-cell voltage-clamp, TRPV3-YFP expressing HEK293 cells; type: cell-based; details: IA 200 μM; 2-APB 100 μM; charge −85 to −45 mV
T1 construct: expressed in transfected cells
T1 sequence (Q8K424 1-791): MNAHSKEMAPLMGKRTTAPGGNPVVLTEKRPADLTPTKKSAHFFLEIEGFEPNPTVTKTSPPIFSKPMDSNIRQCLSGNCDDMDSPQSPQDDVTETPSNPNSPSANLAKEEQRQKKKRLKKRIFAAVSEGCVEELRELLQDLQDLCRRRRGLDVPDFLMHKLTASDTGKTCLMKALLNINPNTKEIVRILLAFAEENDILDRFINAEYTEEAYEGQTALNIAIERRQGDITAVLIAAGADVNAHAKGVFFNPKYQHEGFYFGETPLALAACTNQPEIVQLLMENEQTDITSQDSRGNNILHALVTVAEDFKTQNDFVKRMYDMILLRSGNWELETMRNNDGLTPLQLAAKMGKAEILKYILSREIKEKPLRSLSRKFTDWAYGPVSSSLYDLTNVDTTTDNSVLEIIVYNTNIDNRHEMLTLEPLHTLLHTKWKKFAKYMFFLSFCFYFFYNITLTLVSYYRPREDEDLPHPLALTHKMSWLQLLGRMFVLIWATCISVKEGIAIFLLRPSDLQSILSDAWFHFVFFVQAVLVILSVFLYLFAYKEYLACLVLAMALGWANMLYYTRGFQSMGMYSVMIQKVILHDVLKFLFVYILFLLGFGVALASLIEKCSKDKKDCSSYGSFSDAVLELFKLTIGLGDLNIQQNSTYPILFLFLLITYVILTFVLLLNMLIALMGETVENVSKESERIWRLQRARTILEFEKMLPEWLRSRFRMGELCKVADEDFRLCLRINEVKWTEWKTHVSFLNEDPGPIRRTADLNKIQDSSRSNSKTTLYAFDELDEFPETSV
Experimental: Electrophysiological recording. Currents were recorded using whole-cell voltage-clamp. Pipettes were pulled from microcapillary glass (A-M Systems). A coverslip containing cells was transferred to a 300 μL chamber that was constantly perfused (1-2 mL/min) with external solution. Voltage protocols were generated and data were digitized and recorded using Pulse (HEKA Elektronik) software in conjunction with an Axopatch 200A amplifier (Axon Instruments), and the data analyzed using an in-house Visual Basic (Microsoft) analysis program.
The external solution contained (in mM): 120 NaCl, 5 KCl, 1 MgCl2, 2 CaCl2, 10 Glucose and 20 HEPES, pH 7.4 with NaOH. The measured charge (pC) was defined as the charge elicited between -85 and -45 mV by a ramping voltage stimulus (−85 mV to +35 mV, 0.54 mV/msec; holding potential -55 mV). Currents were sampled at 5 kHz. Experimental and control cells were alternated whenever possible. Control values were obtained from adjacent cells with no detectable YFP fluorescence, presumed to be non-TRPV3-expressing.

[3] = biological target: T2, rat TRPV4 (Rattus norvegicus, UniProt Q9ERZ8); test: Calcium imaging of TRPV4 transfected HEK293 cells; type: cell-based; details: IA 100 μM, compared to vehicle
T2 construct: expressed in transfected cells; host or cells: HEK293 cell line
Experimental: All error bars indicate SEM; p values in all subfigures but c represent analysis with one-way ANOVA Bonferroni's post hoc.
TRPV3-YFP [O'dell, D. K., Rimmerman, N., Pickens, S. R. & Walker J. M. Fatty acyl amides of endogenous tetrahydroisoquinolines are active at the recombinant human TRPV1 receptor. Bioorg. Med. Chem. 15, 6164-6169 (2007)], TRPV4 and mock-transfected cell lines were cultured in DMEM 1× with L-glutamine (Mediatech, Inc. Herndon, Va.), containing 1% penicillin-streptomycin (Invitrogen, Carlsbad, Calif.) and 10% foetal bovine serum.
Calcium imaging of HEK 293 cells. TRPV1, TRPV3, and TRPV4 expressing HEK293 cells were plated 24-48 h before imaging in 96 well plates, loaded with 3 μM Fura-2 AM and imaged as previously described [O'dell, D. K., Rimmerman, N., Pickens, S. R. & Walker J. M. Fatty acyl amides of endogenous tetrahydroisoquinolines are active at the recombinant human TRPV1 receptor. Bioorg. Med. Chem. 15, 6164-6169 (2007)].

[4] = test system: c-Fos; test: c-Fos immunoreactivity in mouse brain; type: in vivo, female Sabra mice; details: 50 mg/kg i.p., 60 min after administration
Description: The drawings were modified from plates 30; 38,45, 89 respectively from Paxinos and Franklin (2001). The atlas sections are arranged from anterior a to posterior d. The number under each section indicates its distance (mm) from the bregma. “A” is anterior to bregma and “P” is posterior to bregma.
For analysis of c-Fos immunoreactivity, positive nuclei were identified based on their round form and optical density at least twice that of background. The numbers of c-Fos immunoreactive nuclei from the right and left hemispheres were averaged to obtain a representative number for the given region from each mouse. Student t tests were performed comparing the control (vehicle) with the IA group.
The effect of IA on different brain regions were studied by looking at the effect of IA on c-Fos immunoreactivity in mice brains 60 min after administration of IA (50 mg/kg; i.p.). The c-Fos transcription factor is a product of an immediate early gene and its increase serves as a marker of enhanced neuronal activity. It is thus used in histological sections to map out brain regions that are activated or attenuated after treatment with psychoactive drugs [Werme, M., Ringholm, A., Olson, L. & Brene S. Differential patterns of induction of NGFI-B, Norl and c-fos mRNAs in striatal subregions by haloperidol and clozapine. Brain Res. 863, 112-119 (2000); and Dragunow, M., Robertson, G. S., Faull, R. L., Robertson, H. A. & Jansen, K. D2 dopamine receptor antagonists induce fos and related proteins in rat striatal neurons. (1990) Neuroscience 37, 287-294]. […] The central nucleus of the amygdala and the lateral septum play major roles in the expression of emotions [Thompson, B. L. & Rosen, J. B. Immediate-early gene expression in the central nucleus of the amygdala is not specific for anxiolytic or anxiogenic drugs. Neuropharmacology 50, 57-68 (2006); and Henry, B., Vale, W. & Markou, A. The effect of lateral septum corticotropin-releasing factor receptor 2 activation on anxiety is modulated by stress. J. Neurosci. 26, 9142-9152 (2006)]; it is assumed that c-Fos expression in the central nucleus of the amygdala is due to circuits that are engaged by both anxiolytic and anxiogenic drugs [Thompson, B. L. & Rosen, J. B. Immediate-early gene expression in the central nucleus of the amygdala is not specific for anxiolytic or anxiogenic drugs. Neuropharmacology 50, 57-68 (2006).]

T2 sequence (Q9ERZ8 whole entry): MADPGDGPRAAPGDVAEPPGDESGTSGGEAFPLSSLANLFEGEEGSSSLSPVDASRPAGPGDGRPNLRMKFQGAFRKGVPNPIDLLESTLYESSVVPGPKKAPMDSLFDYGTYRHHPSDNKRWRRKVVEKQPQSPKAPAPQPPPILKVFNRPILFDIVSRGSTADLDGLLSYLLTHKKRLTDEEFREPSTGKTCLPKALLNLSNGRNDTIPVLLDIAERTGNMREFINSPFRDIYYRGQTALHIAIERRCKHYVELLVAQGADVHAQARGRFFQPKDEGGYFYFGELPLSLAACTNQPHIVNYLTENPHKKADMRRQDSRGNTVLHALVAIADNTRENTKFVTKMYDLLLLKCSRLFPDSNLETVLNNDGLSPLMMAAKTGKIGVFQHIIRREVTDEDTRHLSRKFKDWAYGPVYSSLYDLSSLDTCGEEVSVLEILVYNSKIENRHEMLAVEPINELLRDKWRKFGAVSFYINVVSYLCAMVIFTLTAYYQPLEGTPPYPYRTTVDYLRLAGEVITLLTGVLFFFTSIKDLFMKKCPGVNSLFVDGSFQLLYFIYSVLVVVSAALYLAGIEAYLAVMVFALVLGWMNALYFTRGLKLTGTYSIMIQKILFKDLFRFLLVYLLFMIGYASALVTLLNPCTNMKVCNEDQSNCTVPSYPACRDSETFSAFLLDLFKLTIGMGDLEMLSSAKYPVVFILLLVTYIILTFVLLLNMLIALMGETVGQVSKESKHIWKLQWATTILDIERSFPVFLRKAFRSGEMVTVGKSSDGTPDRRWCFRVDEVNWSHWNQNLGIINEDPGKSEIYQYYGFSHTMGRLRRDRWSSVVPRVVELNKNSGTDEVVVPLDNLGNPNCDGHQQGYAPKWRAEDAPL

Structure (SMILES): CC(=O)OC1CC/C(C)=C/CC/C(C)=C/CC2(C(C)C)CCC1(C)O2 (stereo not drawn) [IA, incensole acetate]
- tissue water content [1]: 81.47±0.35%
- current activation in TRPV3(+) HEK293 cells [2]: activation of currents
- calcium influx in TRPV4 transfected HEK293 cells [3]: very modest calcium influx
- c-Fos in the central nucleus of the amygdala [4]: significantly increased c-Fos
- c-Fos in the hippocampal CA3 region [4]: significantly reducing c-Fos
- c-Fos in the lateral septum [4]: significantly increased c-Fos
- c-Fos in the medial striatum [4]: significantly reducing c-Fos
- c-Fos in the motor cortex [4]: significantly reducing c-Fos
- c-Fos in the solitary nucleus [4]: significantly increased c-Fos
